Where two headings read alike, the source gives them in different places.
Experiments:
[1] = target: T1, GST-CIB1 : F-αIIb peptide (Homo sapiens, UniProt Q99828); experiment: FP assay in the presence of glutathione (GSH), thiol reactivity; assay type: binding; settings: for GSH/CIB1 IC50 ratio: ratio of GSH (+) IC50 to GSH (-) IC50; for GSH Assay Result: thiol reactivity call: No change / Active
T1 construct: made in house; host or cells: BL-21 plus RIL cells (E. coli)
T1 sequence (Q99828 1-191): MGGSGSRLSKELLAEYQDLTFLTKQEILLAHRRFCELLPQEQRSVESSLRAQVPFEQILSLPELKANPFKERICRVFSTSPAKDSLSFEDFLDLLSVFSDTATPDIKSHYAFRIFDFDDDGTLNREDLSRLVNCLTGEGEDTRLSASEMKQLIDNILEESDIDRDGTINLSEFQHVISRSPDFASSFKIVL

[2] = target: T2, GST-CIB1 : F-scrambled peptide (Homo sapiens, UniProt Q99828); experiment: FP scrambled-peptide counter screen, 1536-well format; assay type: binding; settings: for COUNTERSCREEN Confirm?: YES/NO call; for COUNTERSCREEN Curve Class: qHTS curve class; for IC50: read-out: COUNTERSCREEN IC50
T2 construct: made in house; host or cells: BL-21 plus RIL cells (E. coli)
T2 sequence (Q99828 1-191): T1 sequence (Q99828 1-191)

[3] = target: T2, GST-CIB1 : F-scrambled peptide; experiment: FP scrambled-peptide counter screen, 384-well format; assay type: binding; settings: F-scrambled peptide; for 384-well COUNTERSCREEN Confirm?: *: Curve in opposite direction; for IC50: read-out: 384-well COUNTERSCREEN IC50
[4] = target: T3, GST-CIB1:F-αIIb interaction (Homo sapiens, UniProt Q99828); experiment: Gel-based (in-gel) binding assay; settings: 1 μM GST-CIB1, 400 nM F-αIIb; for Active in Gel Assay?: 60 μM, 1:2, 4-points
T3 construct: made in house; host or cells: BL-21 plus RIL cells (E. coli)
T3 sequence (Q99828 1-191): T1 sequence (Q99828 1-191)

[5] = target: T4, CIB1 and αIIb interaction (GST-CIB1 : F-αIIb peptide) (Homo sapiens, UniProt Q99828); experiment: FP assay, 384-well format (screen); assay type: binding; set-up: 384-well SCREEN Efficacy (%): concentration or dose not given beside the values; settings: for 384-well SCREEN Efficacy (%) / 384-well SCREEN Confirm? / IC50: F-αIIb peptide; for 384-well SCREEN Confirm?: YES/NO; for IC50: read-out: 384-well SCREEN IC50
T4 construct: made in house; host or cells: BL-21 plus RIL cells (E. coli)
T4 sequence (Q99828 1-191): T1 sequence (Q99828 1-191)

[6] = target: T5, CIB1 and αIIb interaction (CIB1-GST : F-αIIb peptide) (Homo sapiens, UniProt Q99828); experiment: FP assay, 1536-well qHTS format (primary and confirmatory screen); assay type: binding; settings: for CONFIRMATORY SCREEN Confirm?: YES/NO call; for CONFIRMATORY SCREEN Curve Class: qHTS curve class; for CONFIRMATORY SCREEN Curve Class / Curve Class: negative sign = inhibitory curve
T5 construct: made in house; host or cells: BL-21 plus RIL cells (E. coli)
T5 sequence (Q99828 1-191): T1 sequence (Q99828 1-191)

[7] = FP assay in the presence of glutathione (GSH +), read-out: GSH (+) Assay IC50
[8] = FP assay without glutathione (GSH -), read-out: GSH (-) Assay IC50
[9] = scrambled-peptide counterscreen
[10] = confirmatory screen, negative = inhibition
[11] = confirmatory screen, read-out: CONFIRMATORY SCREEN IC50
[12] = with vs without 10 μM reduced GSH
[13] = concentrations tested 60, 30, 15, 7.5
[14] = qHTS FP screen hits, Table S2, negative = inhibition
[15] = qHTS FP screen hits, Table S2, one class per curve where COUNT > 1
[16] = qHTS primary screen hits, Table S2, negative = inhibition
[17] = qHTS primary screen hits, Table S2, several classes where COUNT > 1
[18] = qHTS primary screen hits, Table S2, read-out: IC50
[19] = qHTS FP screen hits, Table S2, read-out: IC50

Row | SMILES | IC50 [1, 7] [µM] | IC50 [1, 8] [µM] | GSH/CIB1 IC50 ratio [1] | COUNTERSCREEN Efficacy (%) [2, 9] [%] | COUNTERSCREEN Confirm? [2, 9] | COUNTERSCREEN Curve Class [2, 9] | 384-well COUNTERSCREEN Efficacy (%) [3] [%] | 384-well COUNTERSCREEN Confirm? [3] | IC50 [3] [µM] | Active in Gel Assay? [4] | 384-well SCREEN Efficacy (%) [5] [%] | 384-well SCREEN Confirm? [5] | IC50 [5] [µM] | CONFIRMATORY SCREEN Confirm? ([6]; confirmatory screen) | CONFIRMATORY SCREEN Curve Class ([6]; confirmatory screen) | CONFIRMATORY SCREEN Efficacy (%) [6, 10] [%] | IC50 [6, 11] [µM] | Efficacy (%) [6, 14] [%] | Curve Class [6, 15] | Efficacy (%) [6, 16] [%] | further results
1 | CCN(CC)C(=S)SSC(=S)N(CC)CC [NCGC00016000-13, disulfiram, reference compound] | 27 | 3.2 | 8.5 | -13 | YES | 4 | 34 | YES | > 120 | YES | 95 | YES | 1.6 | YES | -1.2 | -72 | 14.1 |  |  |  | IC50 shift in the presence of GSH [1]: 8.5 fold
2 | CN(C)C(=S)SSC(=S)N(C)C [NCGC00091563-02, thiram, reference compound] | 8.3 | 1 | 8.3 |  |  |  | 44 | YES | > 120 | YES | 78 | YES | 2.8 |  |  |  |  |  |  |  | IC50 shift in the presence of GSH [1, 12]: 8.3 fold
3 | O=C1C(I)=CC(=C(c2cc(I)c([O-])c(I)c2)c2ccccc2C(=O)[O-])C=C1I.[Na+].[Na+] [NCGC00161636-02] | 28.2 | 15.9 |  | 435 | YES |  | 105 | YES | 14.1 | YES | 78 | YES | 31.6 | YES | -1.2 | -74 | 11.2 | -47 | -1.2 |  | GSH Assay Result [1]: No change; IC50 [2, 9]: 89.1 µM; Inhibited concentration in gel [4, 13]: 60 µM; IC50 ([6]; IC50 [μM], qHTS FP screen hits, Table S2): 17.8 µM
4 | S=C(SSC(=S)N1CCCCC1)N1CCCCC1 [NCGC00181776-01] |  |  | 30.8 |  |  |  |  |  |  |  |  |  |  |  |  |  |  |  |  |  | IC50 ([1]; GSH (+) Assay IC50, FP assay in the presence of glutathione (GSH +)): > 120 µM; IC50 ([1]; GSH (-) Assay IC50, FP assay without glutathione (GSH -)): 4.6 µM
5 | S=C(SSC(=S)N1CCCCC1)N1CCCCC1 [NCGC00181776-02, dipentamethylenethiuram disulfide] |  |  |  | 0 | YES | 4 | 38 | YES | > 120 | YES | 80 | YES | 6.3 | YES | -1.4 | -72 | 25.1 |  |  | -64 | shift in potency in the presence of GSH [1, 12]: right-shift in potency; Inhibited concentration in gel (µM) [4, 13]: 60,30 µM; Curve Class [6, 17]: -1.2; IC50 [6, 18]: 28.2 µM
6 | CC(C)(C)c1ccc(SC2=NS(=O)(=O)c3ccccc32)cc1 [NCGC00189495-01] | > 120 | 6.2 | 28.3 | 0 | YES | 4 | 25 | YES | > 120 | YES | 35 | YES | 8.9 | YES | -2.4 | -62 | 31.6 | -38 | -2.2 |  | shift in potency in the presence of GSH [1, 12]: right-shift in potency; Inhibited concentration in gel (µM) [4, 13]: 60,30 µM; IC50 [6, 19]: 39.8 µM
7 | O=c1[nH]sc2cc(Cl)ccc12 [NCGC00262908-01, ticlatone, reference compound] | 10.3 | 0.234 | 44.0 | 10 | YES | 4 | 95 | YES | > 120 | YES | 79 | YES | 0.562 | YES | -1.2 | -50 | 2.8 |  |  | -68 | shift in potency in the presence of GSH [1, 12]: right-shift in potency; Curve Class ([6]; qHTS primary screen hits, Table S2): -1.2; IC50 [6, 18]: 3.5 µM
8 | O=[N+]([O-])c1cnc(Sc2nnc(O)n2-c2ccc3c(c2)OCCO3)s1 [NCGC00263145-01] |  |  |  | 15 | YES | 4 | 89 | YES | 89.1 | YES | 67 | YES | 2.2 | YES | -1.4 | -64 | 11.2 |  |  | -40 | Curve Class [6, 17]: -2.2; IC50 [6, 18]: 21.5 µM
9 | COc1cccc(-n2c(SCc3cc(=O)oc4cc(O)c(O)cc34)nc3ccccc3c2=O)c1.O=C(O)C(F)(F)F [NCGC00371345-01] | 15.9 | 20 | 0.8 |  |  | -2.4 | 38 | Inconclusive | 7.1 | YES | 73 | YES | 11.2 |  | -1.1 |  | 14.1 |  |  | -34 | GSH Assay Result [1]: No change; COUNTERSCREEN Efficacy (%) [2]: -35%; IC50 [2, 9]: 8.9 µM; Confirm and Selective? ([5]; selective toward αIIb: negative curve class and/or IC50 ratio of >3-fold and/or >2-fold efficacy vs scrambled peptide): Inconclusive; CONFIRMATORY SCREEN Efficacy (%) [6]: -90%; Curve Class [6, 17]: -1.4; IC50 [6, 18]: 4.5 µM
10 | COc1ccc2c(c1)C=C1Cn3c-2c(C2CCCCC2)c2ccc(cc23)C(=O)NS(=O)(=O)N(C)CCOCCN(C)C1=O [NCGC00482982-02] |  |  |  | 101 | YES |  | 25 | YES* | > 120 |  | 35 | YES | 30.1 | YES | -2.2 | -52 | 39.8 | -35 | -2.2 |  | IC50 [2, 9]: 70.8 µM; IC50 [6, 19]: 56.2 µM
11 | N#Cc1ccc(N2N=C3c4ccc(C(=O)O)cc4CC[C@@H]3[C@@H]2C2CCCC2)cc1Cl [NCGC00485023-01] |  |  |  | 165 | YES |  | 40 |  |  |  | -15 |  |  | YES | -2.4 | -30 |  | -32 | -1.2 |  | 

— paper PMC11249646, “Small-Molecule Disruptors of the Interaction between Calcium- and Integrin-Binding Protein 1 and Integrin αIIbβ3 as Novel Antiplatelet Agents” (ACS Pharmacology & Translational Science, 2024)
